The record followed here is ChEMBL document CHEMBL1955759, “Influence of susceptibility to hydrolysis and hydrophobicity of arylsemicarbazones on their anti-nociceptive and anti-inflammatory activities” (Eur J Med Chem, 2012).

For data set [1], the system named is Rattus norvegicus. Nature of the data set: Antiinflammatory activity in Wistar rat assessed as inhibition of carrageenan-induced paw edema at 0.62 mmol/kg, ip administered 30 mins prior to carrageenan-challenge measured up to 6 hrs. It is filed as functional, organism-based.
The subject of data set [2] is Rattus norvegicus. Briefly: Antiinflammatory activity in Wistar rat assessed as inhibition of carrageenan-induced paw edema at 0.31 mmol/kg, ip administered 30 mins prior to carrageenan-challenge measured up to 6 hrs. It counts as functional, organism-based.
The nature of data set [3]: n-Octanol-water distribution coefficient, log K of the compound by shake flask method. It counts as physicochemical. The following applies: read-out: log KOW.
The test system of data set [4] is Mus musculus. Nature of the data set: Antinociceptive activity in Swiss mouse assessed inhibition of formaldehyde-induced paw licking at 0.31 mmol/kg, ip administered 30 mins prior to formaldehyde-challenge measured from 15 to 30 mins. It is filed as functional, organism-based.
For data set [5], the system named is Mus musculus. Nature of the data set: Antinociceptive activity in Swiss mouse assessed inhibition of formaldehyde-induced paw licking at 0.31 mmol/kg, ip administered 30 mins prior to formaldehyde-challenge measured up to 5 mins. It counts as functional, organism-based.
For data set [6], the system named is Mus musculus. Nature of the data set: Antinociceptive activity in Swiss mouse assessed as inhibition of zymosan A-induced writhing response at 0.16 mmol/kg, ip administered 30 mins prior to zymosan A-challenge. It is filed as functional, organism-based.
The subject of data set [7] is Mus musculus. Nature of the data set: Neurotoxicity in Swiss mouse assessed as motor coordination by measuring change in time spent on rotating rod at 0.62 mmol/kg, ip administered 30 mins prior to testing. It counts as toxicity, organism-based. The settings on record: in vivo, 0.5 h.
The test system of data set [8] is Mus musculus. Briefly: Antinociceptive activity in Swiss mouse assessed as inhibition of zymosan A-induced writhing response at 0.31 mmol/kg, ip administered 30 mins prior to zymosan A-challenge. It counts as functional, organism-based. (In general: Writhing tests count abdominal constrictions after an irritant is injected.)
The test system of data set [9] is Mus musculus. Nature of the data set: Antinociceptive activity in Swiss mouse assessed as inhibition of zymosan A-induced writhing response at 0.62 mmol/kg, ip administered 30 mins prior to zymosan A-challenge. It is filed as functional, organism-based.
The subject of data set [10] is Rattus norvegicus. Nature of the data set: Antiinflammatory activity in Wistar rat assessed as inhibition of carrageenan-induced paw edema at 0.62 mmol/kg, ip administered 30 mins prior to carrageenan-challenge measured at 2 hrs. It counts as functional, organism-based. In general terms: In the carrageenan paw model, swelling and tenderness develop within hours.
Data set [11] relates to Mus musculus. Nature of the data set: Antinociceptive activity in Swiss mouse assessed inhibition of formaldehyde-induced paw licking at 0.62 mmol/kg, ip administered 30 mins prior to formaldehyde-challenge measured up to 5 mins. It is filed as functional, organism-based.
The subject of data set [12] is Mus musculus. Briefly: Antinociceptive activity in ip dosed Swiss mouse assessed as inhibition of zymosan A-induced writhing response administered 30 mins prior to zymosan A-challenge. It counts as functional.
Data set [13] has as its system Mus musculus. Nature of the data set: Antinociceptive activity in Swiss mouse assessed inhibition of formaldehyde-induced paw licking at 0.62 mmol/kg, ip administered 30 mins prior to formaldehyde-challenge measured from 15 to 30 mins. It is filed as functional, organism-based.
The subject of data set [14] is Rattus norvegicus. Nature of the data set: Antiinflammatory activity in Wistar rat assessed as inhibition of carrageenan-induced paw edema at 0.31 mmol/kg, ip administered 30 mins prior to carrageenan-challenge measured at 2 hrs. It is filed as functional, organism-based.

Active and inactive are the calls of the source. The calls are words filed in the database; no cut-off is given here.

As for `NC(=O)N/N=C/c1ccccc1`, the inhibition entry in the data set on Rattus norvegicus [1], in the data set with Rattus norvegicus [2] and with Mus musculus [6] was “inactive” each time. Moreover, the logP in data set [3] worked out at 0.91. The inhibition result with Mus musculus [4] and in the data set on Mus musculus [5] was “Active” each time.

On to `NC(=O)N/N=C/c1ccccc1O`, for which, in the data set on Mus musculus [7], the Activity entry is on record as “Non-toxic”. Further, the inhibition result in the data set on Mus musculus [8], in the data set with Mus musculus [9], in the data set with Rattus norvegicus [10], with Mus musculus [13] and in the data set with Rattus norvegicus [14] was “Active” each time. The inhibition result with Rattus norvegicus [1], in the data set with Rattus norvegicus [2] and in the data set with Mus musculus [11] was “inactive” in each case. Moreover, in data set [3], the logP is 0.85. Further, the MED with Mus musculus [12] was 0.16 mmol/kg.

As to `NNC(N)=O`, the inhibition entry with Rattus norvegicus [1], in the data set with Rattus norvegicus [2] and in the data set with Mus musculus [4] was “Active” throughout. The inhibition entry with Mus musculus [5] is “inactive”.

In the case of `O=Cc1ccccc1`, in the data set with Mus musculus [4], the inhibition result is “inactive”.

On to `NC(=O)N/N=C/c1ccc(O)cc1`, for which the inhibition result in the data set on Mus musculus [8] and in the data set with Mus musculus [9] was “inactive” in each case. The logP in data set [3] came out at 0.31.

For `NC(=O)N/N=C/c1cccc(O)c1`, the inhibition result in the data set on Mus musculus [8] and with Mus musculus [9] was “inactive” in each case. For the same compound, the logP in [3] was found to be 0.43.
